Tests used:
CCKAR = biological target: T1, CCKAR (Homo sapiens, UniProt P32238); experiment: NanoBRET screen HiBiT-CCKAR in HEK293; type: binding
T1 construct: purchased Promega (in-house HiBiT-GPCR construct library, NanoBRET)
T1 sequence (P32238 1-428): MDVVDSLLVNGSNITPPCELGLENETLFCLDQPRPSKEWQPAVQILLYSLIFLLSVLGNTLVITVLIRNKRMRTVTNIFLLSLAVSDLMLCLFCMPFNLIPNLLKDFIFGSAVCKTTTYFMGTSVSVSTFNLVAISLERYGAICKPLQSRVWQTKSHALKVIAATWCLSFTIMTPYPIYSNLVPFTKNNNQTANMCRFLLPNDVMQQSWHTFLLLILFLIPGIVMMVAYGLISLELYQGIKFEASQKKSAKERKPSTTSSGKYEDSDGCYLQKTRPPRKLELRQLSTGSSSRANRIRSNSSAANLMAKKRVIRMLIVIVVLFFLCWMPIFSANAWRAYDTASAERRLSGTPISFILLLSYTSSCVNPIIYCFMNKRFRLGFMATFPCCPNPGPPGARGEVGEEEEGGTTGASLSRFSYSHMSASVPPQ
Experimental: (§1) Each tracer candidate was screened across the entire library of HiBiT-GPCR constructs using NanoBRET as the detection modality. As depicted in Figure 4A, the specificity of interactions was evaluated through decrease in BRET due to competitive displacement of a bound tracer by excess parental compound. Each tracer was analyzed for binding to each HiBiT-GPCR fusion in the absence and in the presence of competing parental compound. Briefly, HEK293 cells were transfected with HiBiT-GPCR constructs diluted into promoterless DNA to reduce expression and maximize translocation to the cell surface. Each tracer candidate was then screened at concentrations of 1 μM and 0.1 μM across cells expressing these fusions. Cells were treated for 1.5 h with tracer either alone or in the presence of 20 μM competing parental compound (i.e., control). BRET was measured upon addition of purified LgBiT and subsequent complementation with HiBiT genetically fused to a GPCR. The specificity of interactions was assessed through a decrease in BRET signal due to competitive displacement of the bound tracer. To further gauge the robustness of these interactions, the fold response over the control (i.e., BRETtracer/BRETcontrol) was calculated. We chose a 1.5-fold response, which translates to ≥7-fold signal over noise as the minimal threshold required to score an interaction as positive. […]. Below we highlight the screening results obtained for our exemplary fluorescent tracers based on Clozapine, Amitriptyline and AZD1283.
(§2) HiBiT-GPCR DNA constructs were diluted in 10 mM Tris pH 8 to a final concentration of 0.01 μg/μL, arrayed in 96-well plates and stored at −20 °C. For transfection, HEK293 cells were suspended in Opti-MEM (without phenol red) supplemented with 2% fetal bovine serum (Seradigm) and 100 units/mL penicillin–streptomycin (Gibco) at a final concentration of 220,000 cells/mL and dispensed into white 96-well plates at 90 μL/well. Subsequent transfections and screens were carried using an Agilent Bravo Automated Liquid Handling Platform. First, the 96-well HiBiT DNA arrays were diluted 25-fold in Opti-MEM (without serum or phenol red) to a final concentration of 0.0004 μg/μL and 20 μL of the diluted DNAs were transferred into new 96-well plates. Next, promoterless carrier DNA (1 μg/μL) was diluted 25-fold (0.04 μg/μL) and then dispensed into the diluted arrays at 20 μL/well. Following brief mixing, Viafect transfection reagent (Promega) diluted 16-fold into Opti-MEM was dispensed into the plates at 40 μL/well. After mixing by pipetting, plates were incubated for 10 min on the pipetting station deck. The DNA-transfection reagent complexes were then added to plates containing cells. To facilitate the screen, 10 μL of DNA-transfection reagent complexes were added in duplicates to the top 4 and bottom 4 rows, resulting in two identical 48-well arrays per plate. Plates with transfected cells were incubated for 18–20 h at 37 °C/5% CO2. A screen of each tracer across the entire library using two different concentrations requires duplicate plates of transfected cells. Depending on the number of tracers being screened, transfections can be scaled up using the same ratios. The next day, for each tracer, four 20× screening solutions in tracer dilution buffer (Promega) were prepared: two duplicates at final concentration of 20 μM and two duplicates at a final concentration of 2 μM. A competing unmodified compound was added to one of each duplicate at a final concentration of 400 μM. The four resulting solutions were diluted 4-fold in Opti-MEM without serum or phenol red to generate 5× solutions (5 µM and 0.5 µM tracer +/− 100 μM competing compound). To screen the library, a BioTek MultiFlo FX liquid dispenser was used to dispense 22.5 µL of tracer solution to the top 4 rows and 22.5 µL tracer + competing compound solution to the 4 bottom rows. Plates were briefly mixed on an orbital shaker and incubated for 1.5 h at room temperature. […]

GABBR1 = biological target: T2, GABBR1 (Homo sapiens, UniProt Q9UBS5); experiment: NanoBRET screen HiBiT-GABBR1 in HEK293; type: binding
T2 construct: purchased Promega (in-house HiBiT-GPCR construct library, NanoBRET)
Experimental: as §1, §2

T2 sequence (Q9UBS5 15-961 limits assumed): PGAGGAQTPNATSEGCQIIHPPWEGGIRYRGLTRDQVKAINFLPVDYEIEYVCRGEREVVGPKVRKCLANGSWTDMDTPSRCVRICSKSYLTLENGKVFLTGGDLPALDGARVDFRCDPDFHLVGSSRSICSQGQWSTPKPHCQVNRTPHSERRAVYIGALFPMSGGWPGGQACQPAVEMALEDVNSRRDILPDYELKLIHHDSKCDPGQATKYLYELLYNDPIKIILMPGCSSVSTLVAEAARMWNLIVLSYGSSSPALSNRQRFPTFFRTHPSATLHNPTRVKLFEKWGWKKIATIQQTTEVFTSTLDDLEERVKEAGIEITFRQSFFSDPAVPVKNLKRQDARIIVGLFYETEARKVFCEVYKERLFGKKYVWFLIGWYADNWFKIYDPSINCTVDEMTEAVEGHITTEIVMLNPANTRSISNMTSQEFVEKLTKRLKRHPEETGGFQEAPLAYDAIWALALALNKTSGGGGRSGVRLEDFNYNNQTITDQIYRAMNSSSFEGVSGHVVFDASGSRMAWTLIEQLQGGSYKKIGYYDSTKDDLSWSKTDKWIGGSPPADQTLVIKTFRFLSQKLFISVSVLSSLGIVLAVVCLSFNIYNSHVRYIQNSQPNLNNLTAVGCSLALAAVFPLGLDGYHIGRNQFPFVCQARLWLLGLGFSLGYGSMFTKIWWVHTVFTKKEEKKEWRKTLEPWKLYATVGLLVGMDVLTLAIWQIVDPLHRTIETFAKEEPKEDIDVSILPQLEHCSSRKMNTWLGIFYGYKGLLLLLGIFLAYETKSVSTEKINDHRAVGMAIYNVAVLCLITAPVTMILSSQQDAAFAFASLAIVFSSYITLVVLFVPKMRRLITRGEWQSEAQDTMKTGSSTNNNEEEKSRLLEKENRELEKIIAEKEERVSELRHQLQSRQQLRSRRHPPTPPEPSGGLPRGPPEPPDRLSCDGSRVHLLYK

Row | Structure (SMILES) | NanoBRET Fold Response (CCKAR; CCKAR, tracer 0.1μM) | NanoBRET Fold Response (CCKAR; CCKAR, tracer 1μM) | NanoBRET Fold Response (GABBR1; GABBR1, tracer 0.1μM) | NanoBRET Fold Response (GABBR1; GABBR1, tracer 1μM) | NanoBRET Fold Response (CCKAR; tracer at 1μM) | NanoBRET Fold Response (GABBR1; tracer at 1μM) | also measured
1 | O=C(CCOCCOCCOCCOCCNC(=O)CCc1ccc2n1[B-](F)(F)[N+]1=C(c3ccc[nH]3)C=CC1=C2)NCCCN1CCN(C2=Nc3ccccc3Oc3ccc(Cl)cc32)CC1 [Loxapine-a-2-NB590] | 1.02 | 0.99 | 1.03 | 0.92 | – | – | –
2 | CN(CCC=C1c2ccccc2CCc2ccccc21)C(=O)CCOCCOCCOCCOCCNC(=O)CCc1ccc2n1[B-](F)(F)[N+]1=C(c3ccc[nH]3)C=CC1=C2 [Amitriptyline-e-2-NB590] | – | – | – | – | 1.00 | 1.09 | –
3 | CCCn1c(=O)c2[nH]c(-c3ccc(OCC(=O)NCCNC(=O)CCOCCNC(=O)c4ccc(CNC(=O)CCc5ccc6n5[B-](F)(F)[N+]5=C(c7ccc[nH]7)C=CC5=C6)cc4)cc3)nc2n(CCC)c1=O [XAC-3-NB590] | 1.01 | 1.01 | 0.86 | 1.00 | – | – | –
4 | CN(C)CCC=C1c2ccccc2CCc2ccc(C(=O)NCCNC(=O)CCOCCOCCOCCOCCNC(=O)CCc3ccc4n3[B-](F)(F)[N+]3=C(c5ccc[nH]5)C=CC3=C4)cc21 [Amitriptyline-a-2-NB590] | – | – | – | – | 1.00 | 0.91 | NanoBRET Fold Response (CCKAR; tracer at 0.1μM): 1.03; NanoBRET Fold Response (GABBR1; tracer at 0.1μM): 0.93
5 | CCOC(=O)c1cc(C#N)c(N2CCC(C(=O)NS(=O)(=O)Cc3ccccc3/C=C/C(=O)NCCNC(=O)CCc3ccc4n3[B-](F)(F)[N+]3=C(c5ccc[nH]5)C=CC3=C4)CC2)nc1C [AZD1283-1-NB590] | – | – | – | – | – | – | NanoBRET Fold Response (CCKAR; CCKAR, 0.1μM): 1.08; NanoBRET Fold Response (CCKAR; CCKAR, 1μM): 1.11; NanoBRET Fold Response (GABBR1; GABBR1, 0.1μM): 1.05; NanoBRET Fold Response (GABBR1; GABBR1, 1μM): 1.13
